# According to patent US20200352905A1, “6-(2,4-DICHLOROPHENYL)-5-[4-[(3S)-1-(3-FLUOROPROPYL)PYRROLIDIN-3-YL]OXYPHENYL]-8,9-DIHYDRO-7H-BENZO[7]ANNULENE-2-CARBOXYLIC ACID FOR USE IN METASTATIC OR ADVANCED BREAST CANCER PATIENTS” (SANOFI, priority 2019, published 2020):
# Key:
# [1] = tested on: ER-positive and HER2-negative advanced breast cancer; assay: TED14856 Part A: antitumor activity per RECIST v1.1 (BOR, ORR, CBR)
# Source text: The signal extinction between baseline and on study treatment ^18FES-PET scans constitute the PD readout of the ER engagement.
# (§1) Patients with an early progression as per RECIST v1.1 or who died from disease progression are evaluable for response.
# Preliminary efficacy is descriptively presented on activity/efficacy population.
# [2] = tested on: ER-positive and HER2-negative advanced breast cancer; assay: TED14856 Part B: antitumor activity per RECIST v1.1 by Independent Central Review
# Experimental: ORR: antitumor activity as documented by tumor response (CR or PR) defined by RECIST v1.1 determined by Independent Central Review (ICR).
# The signal extinction between baseline and on study treatment ^18FES-PET scans constitute the PD readout of the ER engagement. No ^18FES-PET or FDG PET/CT imaging is performed in Part B.
# as §1
# [3] = TED14856 Part B (dose expansion, 400 mg QD): safety, TEAEs; assay type: in vivo, human
# Experimental: Part B: Dose expansion study to evaluate the efficacy, safety, PK and PD of compound (1) administered at the RD (from Part A). […] A BID regimen (without omission on Day 2) may also be explored if found to be needed. Safety population includes all patients exposed to at least one dose of the study treatment. Treatment emergent adverse events (TEAEs) are analyzed according to current version of the Medical Dictionary for Regulatory Activities (MedDRA) dictionary. Laboratory abnormalities are analyzed according to the NCI-CTCAE v.4.03. Type, frequency, seriousness, severity and relatedness of study treatment TEAEs is analyzed on the safety population for each dose level. Similar analyses as for the escalation phase shall be performed.
structure (smiles),measurement,setting,value
"O=C(O)c1ccc2c(c1)CCCC(c1ccc(Cl)cc1Cl)=C2c1ccc(O[C@H]2CCN(CCCF)C2)cc1 [compound (1), 6-(2,4-dichlorophenyl)-5-[4-[(3S)-1-(3-fluoropropyl)pyrrolidin-3-yl]oxyphenyl]-8,9-dihydro-7H-benzo[7]annulene-2-carboxylic acid]",Clinical Benefit Rate,"[1]; 20 mg, N=3",0 n
same,Complete Response (CR),"[1]; 20 mg, N=3",0 n
same,Objective Response Rate,"[1]; 20 mg, N=3",0 n
same,Partial Response (PR),"[1]; 20 mg, N=3",0 n
same,Complete Response (CR),"[1]; 150 mg, N=3",0 n
same,Complete Response (CR),"[1]; 200 mg, N=4",0 n
same,Objective Response Rate,"[1]; 200 mg, N=4",0 n
same,Partial Response (PR),"[1]; 200 mg, N=4",0 n
same,Complete Response (CR),"[1]; 400 mg, N=3",0 n
same,Objective Response Rate,"[1]; 400 mg, N=3",0 n
same,Partial Response (PR),"[1]; 400 mg, N=3",0 n
same,Complete Response (CR),"[1]; 600 mg, N=3",0 n
same,Objective Response Rate,"[1]; 600 mg, N=3",0 n
same,Partial Response (PR),"[1]; 600 mg, N=3",0 n
same,Complete Response (CR),"[1]; All, N=16",0 n
same,patients with tumor shrinkage greater than 10%,[1]; N=16,9 patients
same,Clinical Benefit Rate (CBR),[1]; patients with ESR1 mutations (5/11),45.5%
same,Clinical Benefit Rate (CBR),[1]; patients with wild-type ESR1 (3/5),60.0%
same,Complete Response (CR),"[2]; 400 mg, N=46, by ICR",0 n
same,Clinical Benefit Rate (CBR) assessed by ICR,[2]; ESR1 mutated patients (3/19),15.8%
same,Clinical Benefit Rate (CBR) assessed by ICR,[2]; patients with wild-type ESR1 (9/26),34.6%
same,Grade 3 laboratory abnormality: ALK increase,[3]; Part B,2 patients
same,Grade 3 laboratory abnormality: ALT increase,[3]; Part B,4 patients
same,Grade 3 laboratory abnormality: AST increase,[3]; Part B,6 patients
same,Grade 3 laboratory abnormality: anemia,[3]; Part B,1 patients
same,Grade 3 laboratory abnormality: bilirubin increase,[3]; Part B,3 patients
same,Grade 3 laboratory abnormality: hypercalcemia,[3]; Part B,1 patients
same,Grade 3 laboratory abnormality: hyponatremia,[3]; Part B,2 patients
same,Grade 3 laboratory abnormality: hypophosphatemia,[3]; Part B,2 patients
same,Grade 3 laboratory abnormality: lymphopenia,[3]; Part B,5 patients
same,Grade 3 laboratory abnormality: neutropenia,[3]; Part B,1 patients
same,Grade 4 laboratory abnormality: hypocalcemia,[3]; Part B,1 patients
same,Grade 4 laboratory abnormality: hypokalemia,[3]; Part B,1 patients
same,Grade 4 laboratory abnormality: hyponatremia,[3]; Part B,1 patients
same,Patients with Gr3 TEAE: Abdominal pain,"[3]; Part B, 400 mg, N=49",0 n
same,Patients with Gr3 TEAE: Abdominal pain upper,"[3]; Part B, 400 mg, N=49",0 n
same,Patients with Gr3 TEAE: Arthralgia,"[3]; Part B, 400 mg, N=49",0 n
same,Patients with Gr3 TEAE: Asthenia,"[3]; Part B, 400 mg, N=49",0 n
same,Patients with Gr3 TEAE: Back pain,"[3]; Part B, 400 mg, N=49",0 n
same,Patients with Gr3 TEAE: Constipation,"[3]; Part B, 400 mg, N=49",0 n
same,Patients with Gr3 TEAE: Cough,"[3]; Part B, 400 mg, N=49",0 n
same,Patients with Gr3 TEAE: Decreased appetite,"[3]; Part B, 400 mg, N=49",0 n
same,Patients with Gr3 TEAE: Depression,"[3]; Part B, 400 mg, N=49",0 n
same,Patients with Gr3 TEAE: Diarrhoea,"[3]; Part B, 400 mg, N=49",0 n
same,Patients with Gr3 TEAE: Dry skin,"[3]; Part B, 400 mg, N=49",0 n
same,Patients with Gr3 TEAE: Dyspnoea,"[3]; Part B, 400 mg, N=49",0 n
same,Patients with Gr3 TEAE: Gastroesophageal reflux disease,"[3]; Part B, 400 mg, N=49",0 n
same,Patients with Gr3 TEAE: Headache,"[3]; Part B, 400 mg, N=49",0 n
same,Patients with Gr3 TEAE: Hot flush,"[3]; Part B, 400 mg, N=49",0 n
same,Patients with Gr3 TEAE: Hypertension,"[3]; Part B, 400 mg, N=49",0 n
same,Patients with Gr3 TEAE: Musculoskeletal pain,"[3]; Part B, 400 mg, N=49",0 n
same,Patients with Gr3 TEAE: Nasopharyngitis,"[3]; Part B, 400 mg, N=49",0 n
same,Patients with Gr3 TEAE: Pyrexia,"[3]; Part B, 400 mg, N=49",0 n
same,Patients with Gr3 TEAE: Rhinitis allergic,"[3]; Part B, 400 mg, N=49",0 n
same,Patients with Gr3 TEAE: Urinary tract infection,"[3]; Part B, 400 mg, N=49",0 n
same,Patients with related Gr3 TEAE: ALL,"[3]; Part B, 400 mg, N=49",0 n
same,Patients with related Gr3 TEAE: ALT increased,"[3]; Part B, 400 mg, N=49",0 n
same,Patients with related Gr3 TEAE: AST increased,"[3]; Part B, 400 mg, N=49",0 n
same,Patients with related Gr3 TEAE: Abdominal pain,"[3]; Part B, 400 mg, N=49",0 n
same,Patients with related Gr3 TEAE: Abdominal pain upper,"[3]; Part B, 400 mg, N=49",0 n
same,Patients with related Gr3 TEAE: Arthralgia,"[3]; Part B, 400 mg, N=49",0 n
same,Patients with related Gr3 TEAE: Asthenia,"[3]; Part B, 400 mg, N=49",0 n
same,Patients with related Gr3 TEAE: Back pain,"[3]; Part B, 400 mg, N=49",0 n
same,Patients with related Gr3 TEAE: Constipation,"[3]; Part B, 400 mg, N=49",0 n
same,Patients with related Gr3 TEAE: Cough,"[3]; Part B, 400 mg, N=49",0 n
same,Patients with related Gr3 TEAE: Decreased appetite,"[3]; Part B, 400 mg, N=49",0 n
same,Patients with related Gr3 TEAE: Depression,"[3]; Part B, 400 mg, N=49",0 n
same,Patients with related Gr3 TEAE: Diarrhoea,"[3]; Part B, 400 mg, N=49",0 n
same,Patients with related Gr3 TEAE: Dry skin,"[3]; Part B, 400 mg, N=49",0 n
same,Patients with related Gr3 TEAE: Dyspnoea,"[3]; Part B, 400 mg, N=49",0 n
same,Patients with related Gr3 TEAE: Fatigue,"[3]; Part B, 400 mg, N=49",0 n
same,Patients with related Gr3 TEAE: Gastroesophageal reflux disease,"[3]; Part B, 400 mg, N=49",0 n
same,Patients with related Gr3 TEAE: Headache,"[3]; Part B, 400 mg, N=49",0 n
same,Patients with related Gr3 TEAE: Hot flush,"[3]; Part B, 400 mg, N=49",0 n
same,Patients with related Gr3 TEAE: Hypertension,"[3]; Part B, 400 mg, N=49",0 n
same,Patients with related Gr3 TEAE: Musculoskeletal pain,"[3]; Part B, 400 mg, N=49",0 n
same,Patients with related Gr3 TEAE: Nasopharyngitis,"[3]; Part B, 400 mg, N=49",0 n
same,Patients with related Gr3 TEAE: Nausea,"[3]; Part B, 400 mg, N=49",0 n
same,Patients with related Gr3 TEAE: Pyrexia,"[3]; Part B, 400 mg, N=49",0 n
same,Patients with related Gr3 TEAE: Rhinitis allergic,"[3]; Part B, 400 mg, N=49",0 n
same,Patients with related Gr3 TEAE: Urinary tract infection,"[3]; Part B, 400 mg, N=49",0 n
same,Patients with related Gr3 TEAE: Vomiting,"[3]; Part B, 400 mg, N=49",0 n
same,Patients with related TEAE: ALT increased,"[3]; Part B, 400 mg, N=49",0 n
same,Patients with related TEAE: AST increased,"[3]; Part B, 400 mg, N=49",0 n
same,Patients with related TEAE: Back pain,"[3]; Part B, 400 mg, N=49",0 n
same,Patients with related TEAE: Headache,"[3]; Part B, 400 mg, N=49",0 n
same,Patients with related TEAE: Nasopharyngitis,"[3]; Part B, 400 mg, N=49",0 n
same,Patients with related TEAE: Pyrexia,"[3]; Part B, 400 mg, N=49",0 n
same,Patients with related TEAE: Rhinitis allergic,"[3]; Part B, 400 mg, N=49",0 n
same,number of SAEs of grade ≥3,"[3]; Part B, N=49",14
same,laboratory abnormality reported as adverse event: alkaline phosphatase increase,"[3]; Part B, not considered related",1
same,laboratory abnormality reported as adverse event: hyperbilirubinemia,"[3]; Part B, not considered related",2
same,laboratory abnormality reported as adverse event: hypercalcemia,"[3]; Part B, not considered related",1
same,laboratory abnormality reported as adverse event: increase of alanine amino transferase,"[3]; Part B, not considered related",3
same,laboratory abnormality reported as adverse event: increase of aspartate amino transferase,"[3]; Part B, not considered related",3
same,related serious adverse events,[3]; whole study,no related serious adverse events
